Each structure is given as a SMILES string.

From US20250313544A1, “INHIBITORS OF GLUTATHIONE S-TRANSFERASE ZETA 1 (GSTZ1) AND METHODS OF USE” (H. LEE MOFFITT CANCER CENTER AND RESEARCH INSTITUTE, INC., priority 2022, published 2025) come the findings set out here.

In assay [1] the test system is H1792 cells harboring KRAS G12C. The experiment in a line: Cell viability assay (CellTiter-Glo) in H1792 cells. It is filed as cell-based, human. Here is the method:
(§1) Cells were seeded in Corning 384-well black walled/clear bottom microplates with a density of 1,000 cells/well and treated with indicated drugs and concentrations following cell attachment for 24 h. After 72 h or 96 h, as indicated, cell viability was evaluated with CellTiter-Glo (Promega, Madison, WI) according to manufacturer's recommendations. An M5 Spectramax plate reader (Molecular devices) was used to read the plates with 500 ms integration. Data was processed and analyzed using Excel and GraphPad Prism 9.0.
Background: In ATP-based viability assays light output follows the ATP content of the culture.

The test system of a further assay is H1792 LUAD cells. The assay is described as follows: Chemical proteomics target profiling in live H1792 cells (label-free LC-MS/MS, comparison with control probe 22 and panel-wide cross-comparison). Format: binding, human. The settings on record: for number of probe-enriched target candidates over control probe 22 (promiscuity): log2 ratio vs. control probe >2.32; for prominent target protein predominantly enriched by the probe: compared to control probe and probe panel; for other proteins also enriched by the probe: log2 ratio>2.32 and enrichment score>2. Here is the method:
(§2) Cells were grown in 10 cm dishes to ˜90% confluence at the time of treatment. Cells were carefully washed twice with Dulbecco's phosphate buffered saline (DPBS) and replenished with fresh serum-free RPMI 1640 media containing indicated probes ([…]), competitors, or DMSO. Without competitors, cells were incubated with probes for 30 min at 37° C. and then exposed to 365 nm UV light for 15 min on ice. With competitors, cells were pre-treated with competitors for 30 min and photoactivated for 15 min. Probes were then added to cells for an additional 30 min incubation. For no UV experiments, cells were incubated for 15 min under ambient light. Cells were harvested in cold DPBS and pellets were washed with cold DPBS (2 X). Pellets were either directly processed or kept frozen at −80° C. until use. Cells pellets were lysed for 30 min in cold DPBS (100-300 uL) per culture dish supplemented with 1% NP-40, followed by sonication (5 pulses, 4 s on, 20 s off, output setting=4). Lysates were centrifuged at 20,817×g for 20 min, and supernatant (soluble proteome) was used for further processing. Protein concentrations were determined using Bradford assays.
Protein pellets were transferred to 5 mL microcentrifuge tubes and then resuspended in a freshly-prepared solution of proteomics-grade urea (320 μL, 6 M Urea in DPBS) containing 80 μL of 10% SDS and dissolved by sonication. To each solution, 4 mL DPBS was added (final conc: 0.2%, total volume) and incubated with pre-equilibrated NeutrAvidin agarose resin (100 μL 1:1 slurry, Pierce, Cat. 29201) for 2 hrs at ambient temperature on a rotator. The NeutrAvidin beads were collected by centrifugation (1,400×g, 2 min) and sequentially washed with 0.2% SDS in DPBS (2×2 mL), detergent-free DPBS (2×2 mL), and 50 mM ammonium bicarbonate (AMBIC, 2×2 mL). Beads were resuspended with 200 μL 50 mM AMBIC and incubated with TCEP 50 μL (100 mM in 50 mM AMBIC) for 30 min at 37° C. Iodoacetamide (50 μL of 200 mM in 50 mM AMBIC) was added and incubated for 30 min at ambient temperature. The beads were again washed with 2×1 mL 50 mM AMBIC and resuspended in 100 μL of fresh 50 mM AMBIC and treated with 2 μg of sequencing grade modified trypsin (Promega, #V5111) at 37° C. overnight. These samples were acidified with formic acid (final conc: 5%) and centrifuged (1,000×g, 2 min). The supernatant was collected and desalted through ZIPTIPs, and the desalted peptide mixture were dried in vacuum and reconstituted with HPLC buffer (2% acetonitrile, 0.1% formic acid) for LC-MS/MS analysis. Tryptic peptides of avidin were excluded from MS2 analysis to maximize detection of the protein targets (Table S7). Samples were analyzed using LC-MS/MS after being spiked with 50 fmol/uL PRTC standards (88320, Pierce Retention Time Calibration Mixture, Thermo Fisher, MA). A nanoflow ultra high performance liquid chromatograph and nanoelectrospray orbitrap mass spectrometer (RSLCnano and Q Exactive plus, Thermo) were used for LC-MS/MS. The sample was loaded onto a pre-column (C18 PepMap100, 2 cm length×100 μm ID packed with C18 reversed-phase resin, 5 μm particle size, 100 Å pore size) and washed for 8 minutes with aqueous 2% acetonitrile and 0.1% formic acid. Trapped peptides were eluted onto the analytical column, (C18 PepMap100, 25 cm length×75 μm ID, 2 μm particle size, 100 Å pore size, Thermo). A 120-minute gradient was programmed as: 95% solvent A (aqueous 2% acetonitrile+0.1% formic acid) for 8 minutes, solvent B (aqueous 90% acetonitrile+0.1% formic acid) from 5% to 38.5% in 90 minutes, then solvent B from 50% to 90% B in 7 minutes and held at 90% for 5 minutes, followed by solvent B from 90% to 5% in 1 minute and re-equilibration for 10 minutes using a flow rate of 300 nl/min. Spray voltage was 1900 V. Capillary temperature was 275° C. S lens RF level was set at 40. Top 16 tandem mass spectra were collected in a data-dependent manner. The resolution for MS and MS/MS were set at 70,000 and 17,500 respectively. […]

Assay [2] relates to H1792 cells. The assay is described as follows: In-gel fluorescence analysis of probe-labeled proteins after photocrosslinking in live H1792 cells. Format: binding, human. The settings on record: compared to vehicle. As for the experimental part:
as §2
To 1 mg of protein, were added a mixture of TBTA (Tris((1-benzyl-4-triazolyl)methyl)amine, 60 μL/sample, 1.7 mM in 1:4 DMSO: t-BuOH stock), CuSO4 (20 μL/sample, 50 mM in H2O), TCEP (tris(2-carboxyethyl) phosphine, 20 μL/sample, 50 mM in DPBS, made fresh) and Biotin-Azide conjugate (10 μL/sample, 10 mM in DMSO stock). Each sample was rotated at room temperature for 2 h. To each resultant a cold 4:1 mixture (600 μL) of methanol (MeOH)/chloroform (CHCl3) was added followed by cold PBS (100 μL) on ice. The resulting cloudy mixture was centrifuged (5,000×g, 10 min, 4° C.) to fractionate the protein interface from the organic and aqueous solvent layers. A MeOH:CHCl3 (1:1, 1 mL, 2×) mixture was used to wash protein discs thoroughly. Protein discs were sonicated in cold 4:1 MeOH:CHCl3 (2 mL) mixture. The remaining precipitate was pelleted by centrifugation (5,000×g, 10 min, 4° C.). […] Gels were subjected to fluorescence imaging or Western Blotting.

Assay [3] has as its system drug-refractory NSCLC cells (H1792, H520, HCC366). The assay is described as follows: Cell viability assay (CellTiter-Glo) across drug-refractory NSCLC cell lines. Format: cell-based, human. The settings on record: single agent. As for the experimental part:
as §1

Assay [4] relates to H520 cells harboring amplified FGFR1. The experiment in a line: Cell viability assay (CellTiter-Glo) in H520 cells. It is filed as cell-based, human. Here is the method: as §1
Assay [5] has as its system H1792 cells. The assay is described as follows: Protein tyrosine reactivity profiling (SuTEx probe HHS-482, LC-MS/MS) in H1792 cells. It is filed as cell-based, human. The settings on record: 24 h treatment, log2 ratio ≤−0.585 or ≥0.585, p<0.05 vs. vehicle. Here is the method:
Cell lysates were prepared and diluted to 2 mg/mL in PBS. Samples were treated with HHS-482 (a SuTEx probe) at 25 μM for 1 h at room temperature. Labeled proteomes were subjected to CuAAC conjugation with Biotin-Azide conjugate (200 μM) by mixing with TCEP (1 mM), TBTA (100 μM), and CuSO4 (1 mM). After 1 h incubation, resulting mixtures were subjected to MeOH: CHCl3 extraction as described above. Protein discs were reconstituted with urea buffer supplemented with 10% SDS. Samples were processed with NeutrAvidin beads, on-bead digestion with trypsin, and ZIPTIP purification as described above. Samples were dried in vacuum and prepared for LC-MS/MS analysis.

As for `C=CC(=O)N1CCN(c2ncnc3c(F)c(-c4c(O)cccc4F)c(Cl)cc23)CC1` [ARS1620, reference compound], in assay [1] (H1792, KRAS^G12C mutation), the “cell response to targeted drug” value is “poorly responded”.
For the molecule `C#CCCC1(CCC(=O)NC2CC(Oc3nccn4nc(C)cc34)CC(C)(C)C2)N=N1` (stereo not drawn) [Probe 2, 3-(3-(but-3-yn-1-yl)-3H-diazirin-3-yl)-N-(3,3-dimethyl-5-((2-methylpyrazolo[1,5-a]pyrazin-4-yl)oxy)cyclohexyl)propanamide], the “number of probe-enriched target candidates over control probe 22 (promiscuity)” value (“number … over control probe 22 (promiscuity)” below) in the assay on H1792 LUAD cells was “most promiscuous”.
On to `C#CCCC1(CCC(=O)N2CCC(Oc3ncc(C(F)(F)F)cc3Cl)C2)N=N1` (stereo not drawn) [Probe 5, 3-(3-(but-3-yn-1-yl)-3/-diazirin-3-yl)-1-(3-((3-chloro-5-(trifluoromethyl)pyridin-2-yl)oxy)pyrrolidin-1-yl)propan-1-one], for which the “proteome labeling by probe (in-gel fluorescence)” value with H1792 cells [2] is listed as “efficiently labeled a wide range of proteins”. In the assay with H1792 LUAD cells, the “prominent target protein predominantly enriched by the probe” value was “ME3”; the “number … over control probe 22 (promiscuity)” value was “most promiscuous”; the “other proteins also enriched by the probe” value is “FARSA, PTGR1, ME1, YIF1A, and SGPL1”. Also, the “cellular activity of probes (cell viability)” value (shortened to “cellular activity of probes”) in assay [3] is reported as “displayed activity toward multiple tested cell lines”.
With `C#CCCC1(CCC(=O)N2CCN(Cc3nc(-c4cccs4)cs3)CC2)N=N1` [Probe 6, 3-(3-(but-3-yn-1-yl)-3H-diazirin-3-yl)-1-(4-((4-(thiophen-2-yl)thiazol-2-yl)methyl)piperazin-1-yl)propan-1-one], in the assay on H1792 LUAD cells, the “prominent target protein predominantly enriched by the probe” value was “NDUFB11”; the “number … over control probe 22 (promiscuity)” value is “most promiscuous”; the “other proteins also enriched by the probe” value was “NDUFB10, AK3, and LTA4H”.
Take `C#CCCC1(CCC(=O)Nc2ccc3c(c2)N(CC(C)C)C(=O)C(C)(C)CO3)N=N1` [Probe 7, 3-(3-(but-3-yn-1-yl)-3H-diazirin-3-yl)-N-(5-isobutyl-3,3-dimethyl-4-oxo-2,3,4,5-tetrahydrobenzo[b][1,4]oxazepin-7-yl)propanamide]: in the assay with H1792 LUAD cells, the “prominent target protein predominantly enriched by the probe” value is “MMGT1” and the “number … over control probe 22 (promiscuity)” value is recorded as “most promiscuous”. The “cellular activity of probes” value in assay [3] is on record as “displayed activity toward multiple tested cell lines”.
For `C#CCCC1(CCC(=O)N2CC(Nc3ncccn3)C2)N=N1` [Probe 18, 3-(3-(but-3-yn-1-yl)-3H-diazirin-3-yl)-1-(3-(pyrimidin-2-ylamino)azetidin-1-yl)propan-1-one], the “number … over control probe 22 (promiscuity)” value in the assay on H1792 LUAD cells is “few”.
As for `C#CCCC1(CCC(=O)N2CCCCC2c2nnc(C(=O)OC)s2)N=N1` (stereo not drawn) [Probe 19, Methyl-5-(1-(3-(3-(but-3-yn-1-yl)-3H-diazirin-3-yl)propanoyl)piperidin-2-yl)-1,3,4-thiadiazole-2-carboxylate], the “number … over control probe 22 (promiscuity)” value in the assay with H1792 LUAD cells was “few”.
For `C#CCCC1(CCC(=O)N2CCCC2COc2nc3ccccc3cc2C#N)N=N1` (stereo not drawn) [Probe 20, 2-((1-(3-(3-(but-3-yn-1-yl)-3H-diazirin-3-yl)propanoyl)pyrrolidin-2-yl)methoxy)quinoline-3-carbonitrile], in assay [3], the “cellular activity of probes” value was “displayed activity toward multiple tested cell lines”.
Take `C#CCCC1(CCC(=O)NCCCNC(=O)c2ccc3c4c(ncnc24)-c2ccccc2C3=O)N=N1` [Probe 21, N-(3-(3-(3-(but-3-yn-1-yl)-3H-diazirin-3-yl)propanamido)propyl)-7-oxo-7H-benzo[e]perimidine-4-carboxamide]: in the assay on H1792 cells [2], the “proteome labeling by probe (in-gel fluorescence)” value is on record as “efficiently labeled a wide range of proteins”. Also, the “number of candidate target proteins identified for the probe” value with H1792 LUAD cells is recorded as 5. The “cellular activity (cell viability)” value in assay [1] (H1792 cells, single agent) was “highly active”. Moreover, in assay [4] (H520 cells, single agent), the “cellular activity (cell viability)” value is recorded as “highly active”. In assay [3], the “cellular activity of probes” value is given as “displayed activity toward multiple tested cell lines” and the “relative potency among active probes (cell viability)” value is listed as “more potent”.
For the molecule `CCN1CCN(c2ccc(Nc3cc(N(C)C(=O)Nc4c(Cl)c(OC)cc(OC)c4Cl)ncn3)cc2)CC1` [infigratinib, reference compound], the “cell response to targeted drug” value in assay [4] (H520, FGFR1 overexpression) was “only partially respond”.
For the molecule `C=CC(=O)N1CCN(c2nc(=O)n(-c3c(C)ccnc3C(C)C)c3nc(-c4c(O)cccc4F)c(F)cc23)[C@@H](C)C1` [sotorasib], in the assay with H1792 cells [5], the “number of proteins with significantly altered Tyr reactivity” value is listed as 106 proteins.
